Drawing on PubChem BioAssay AID264 (DTP/NCI, 2004), this text covers T/C for 20 compounds.

Values joined by “and” are separate entries in the source; they are usually repeats but may differ in a detail not shown here. Equal entries are not always repeated. Results filed as inconclusive are left out.

In the experiment the test system is nude mice, LX-1 lung xenograft intrarenal, tumor weight T/C. In words: NCI In Vivo Anticancer Drug Screen. Data for tumor model Human Lung LX-1 Xenograft (intrarenal inoculation) in NU/NU Swiss (nude) mice. To be noted: endpoint: mean tumor weight change, higher = larger tumour. A digest of the protocol: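 Antitumor effect is expressed as a ratio: the mean tumor measurement of the drug-treated group relative to that of the vehicle-dosed control group.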
For orientation: In xenograft studies the graft and the host belong to different species.

The mark [1] stands for this setting: dose: 100.0 mg/kg/injection, schedule: Q04DX003 (sc), vehicle: saline with Tween-80.
Where [2] appears, read: dose: 200.0 mg/kg/injection, schedule: Q04DX003 (sc), vehicle: saline with Tween-80.
Setting [3] is: dose: 800.0 mg/kg/injection, schedule: Q04DX003 (sc), vehicle: saline with Tween-80.
[4] abbreviates: dose: 300.0 mg/kg/injection, schedule: Q04DX003 (sc), vehicle: saline with Tween-80.
[5] abbreviates: dose: 600.0 mg/kg/injection, schedule: Q04DX003 (sc), vehicle: saline with Tween-80.
Setting [6] is: dose: 1200.0 mg/kg/injection, schedule: Q04DX003 (sc), vehicle: saline with Tween-80.

As for `COC1C(O)CC(OC2CC(Oc3cc4cc5c(c(O)c4c(O)c3C)C(=O)[C@@H](OC3CC(OC4CC(OC6CC(C)(O)C(OC(C)=O)C(C)O6)C(O)C(C)O4)C(O)C(C)O3)[C@H]([C@H](OC)C(=O)[C@@H](O)[C@@H](C)O)C5)OC(C)C2OC(C)=O)OC1C` (stereo not given in full), the T/C (dose: 0.3 mg/kg/injection, schedule: Q04DX003 (sc), vehicle: Klucel (hydroxypropylcellulose) (HPC)) is 87 % of control; the T/C (dose: 0.6 mg/kg/injection, schedule: Q04DX003 (sc), vehicle: Klucel (hydroxypropylcellulose) (HPC)) is 68 % of control; the T/C (dose: 1.2 mg/kg/injection, schedule: Q04DX003 (sc), vehicle: Klucel (hydroxypropylcellulose) (HPC)) was 36 % of control.
On to `COc1cc(Cc2nccc3cc(OC)c(OC)cc23)c(C(C)=O)c(OC)c1`, for which the T/C was 78 % of control (dose: 40.0 mg/kg/injection, schedule: Q01DX010 (sc), vehicle: saline); 57 % of control (dose: 80.0 mg/kg/injection, schedule: Q01DX010 (sc), vehicle: saline); 67 % of control (dose: 160.0 mg/kg/injection, schedule: Q01DX010 (sc), vehicle: saline).
For the compound `O=[Te]=O`, for the setting “dose: 12.5 mg/kg/injection, schedule: Q04DX003 (sc), vehicle: suspension in saline”, the T/C was 150 % of control.
Regarding `CO[C@H]1C[C@](C)(O)Cc2cc3c(c(O)c21)C(=O)c1c(O)cc2c(c1C3=O)O[C@@H]1O[C@@]2(C)[C@H](O)[C@@H](N(C)C)[C@@H]1O`, the T/C is 68 % of control (dose: 3.12 mg/kg/injection, schedule: Q01DX010 (sc), vehicle: other); 63 % of control and 70 % of control (dose: 6.25 mg/kg/injection, schedule: Q01DX010 (sc), vehicle: other); 23 % of control (dose: 12.5 mg/kg/injection, schedule: Q01DX010 (sc), vehicle: other).
As to `O=C1C=C2C(=CCOC2O)O1` (stereo not given), the T/C (dose: 1.0 mg/kg/injection, schedule: Q04DX003 (sc), vehicle: Klucel (hydroxypropylcellulose) (HPC)) is 158 % of control; the T/C (dose: 2.0 mg/kg/injection, schedule: Q04DX003 (sc), vehicle: Klucel (hydroxypropylcellulose) (HPC)) was 92 % of control; the T/C (dose: 8.0 mg/kg/injection, schedule: Q04DX003 (sc), vehicle: Klucel (hydroxypropylcellulose) (HPC)) was 151 % of control.
Turning to `CNC(=O)ON(C(C)=O)C(=O)NC`, the T/C was 109 % of control (dose: 12.5 mg/kg/injection, schedule: Q01DX010 (sc), vehicle: saline) and 102 % of control (dose: 25.0 mg/kg/injection, schedule: Q01DX010 (sc), vehicle: saline).
With `COc1ccc2[nH]c3ccc4cc[n+](CCN5CCC(C6CCN(CC[n+]7ccc8ccc9[nH]c%10ccc(OC)cc%10c9c8c7)CC6)CC5)cc4c3c2c1`, the T/C runs as follows: (dose: 150.0 mg/kg/injection, schedule: Q04DX003 (sc), vehicle: Klucel (hydroxypropylcellulose) (HPC)) 88 % of control; (dose: 300.0 mg/kg/injection, schedule: Q04DX003 (sc), vehicle: Klucel (hydroxypropylcellulose) (HPC)) 96 % of control; (dose: 600.0 mg/kg/injection, schedule: Q04DX003 (sc), vehicle: Klucel (hydroxypropylcellulose) (HPC)) 83 % of control; (dose: 1200.0 mg/kg/injection, schedule: Q04DX003 (sc), vehicle: Klucel (hydroxypropylcellulose) (HPC)) 93 % of control.
On to `COc1cc2c[n+](C)c3c4cc5c(cc4ccc3c2cc1OC)OCO5`, for which the T/C was 157 % of control under setting [1], 92 % of control under setting [2] and 109 % of control under setting [3].
In the case of `O=C/C(Cl)=C(/Cl)C(=O)O`, the T/C by setting is: (dose: 5.0 mg/kg/injection, schedule: Q01DX010 (sc), vehicle: saline with Tween-80) 124 % of control; (dose: 10.0 mg/kg/injection, schedule: Q01DX010 (sc), vehicle: saline with Tween-80) 210 % of control; (dose: 20.0 mg/kg/injection, schedule: Q01DX010 (sc), vehicle: saline with Tween-80) 72 % of control and 213 % of control; (dose: 40.0 mg/kg/injection, schedule: Q01DX010 (sc), vehicle: saline with Tween-80) 48 % of control and 65 % of control.
With `CC(=O)O[C@@H]1CO[C@H]2O[C@H]3[C@@H](C(C=O)=C[C@H](O)[C@@H]4C5=C(C(C)C)CC[C@]5(C)CC[C@@]34C)[C@@]2(O)C1=O`, the T/C (dose: 100.0 mg/kg/injection, schedule: Q04DX003 (sc), vehicle: Klucel (hydroxypropylcellulose) (HPC)) is 94 % of control and the T/C (dose: 400.0 mg/kg/injection, schedule: Q04DX003 (sc), vehicle: Klucel (hydroxypropylcellulose) (HPC)) was 54 % of control.
As to `C[Si](C)(C)O/C=C1/CCOC1=O`, the T/C was 115 % of control (dose: 50.0 mg/kg/injection, schedule: Q04DX003 (sc), vehicle: suspension in saline); 122 % of control (dose: 100.0 mg/kg/injection, schedule: Q04DX003 (sc), vehicle: suspension in saline); 107 % of control (dose: 200.0 mg/kg/injection, schedule: Q04DX003 (sc), vehicle: suspension in saline); 106 % of control (dose: 400.0 mg/kg/injection, schedule: Q04DX003 (sc), vehicle: suspension in saline).
For `CNC=O`, the T/C is, setting by setting: (dose: 100.0 mg/kg/injection, schedule: Q01DX010 (sc), vehicle: saline) 35 % of control; (dose: 200.0 mg/kg/injection, schedule: Q01DX010 (sc), vehicle: saline) 7 % of control and 15 % of control and 21 % of control; (dose: 400.0 mg/kg/injection, schedule: Q01DX010 (sc), vehicle: saline) 1 % of control and 2 % of control and 24 % of control; (dose: 1600.0 mg/kg/injection, schedule: Q01DX010 (sc), vehicle: saline) 1 % of control.
Regarding `N[C@H](C(=O)O)[C@@H]1CC(Cl)=NO1`, the T/C reads like this: (dose: 2.0 mg/kg/injection, schedule: Q01DX010 (sc), vehicle: saline) 16 % of control; (dose: 2.0 mg/kg/injection, schedule: Q01DX010 (sc), vehicle: suspension in saline) 30 % of control; (dose: 4.0 mg/kg/injection, schedule: Q01DX010 (sc), vehicle: suspension in saline) 33 % of control; (dose: 8.0 mg/kg/injection, schedule: Q01DX010 (sc), vehicle: suspension in saline) 45 % of control; (dose: 16.0 mg/kg/injection, schedule: Q01DX010 (sc), vehicle: suspension in saline) 15 % of control.
In the case of `NCC1CCC(C(=O)O)CC1` (stereo not given), the T/C is 167 % of control under setting [4]; 104 % of control under setting [5]; 75 % of control under setting [6]; 79 % of control (dose: 2400.0 mg/kg/injection, schedule: Q04DX003 (sc), vehicle: saline with Tween-80).
Turning to `CC(=O)OC1COC(NC(=O)N(CCCl)N=O)C(OC(C)=O)C1OC(C)=O` (stereo not given), the T/C is 83 % of control (dose: 1.5 mg/kg/injection, schedule: Q01DX010 (sc), vehicle: saline with Tween-80); 71 % of control (dose: 3.0 mg/kg/injection, schedule: Q01DX010 (sc), vehicle: saline with Tween-80); 60 % of control (dose: 6.0 mg/kg/injection, schedule: Q01DX010 (sc), vehicle: saline with Tween-80); 72 % of control (dose: 12.0 mg/kg/injection, schedule: Q01DX010 (sc), vehicle: saline with Tween-80).
On to `CCN(CC)CCCNc1nccc2c(C)c3[nH]c4ccncc4c3cc12`, for which the T/C runs as follows: (dose: 5.0 mg/kg/injection, schedule: Q01DX010 (sc), vehicle: other) 59 % of control; (dose: 10.0 mg/kg/injection, schedule: Q01DX010 (sc), vehicle: other) 49 % of control.
As to `Cn1cnc([N+](=O)[O-])c1S(=O)(=O)NCN1CCOCC1`, the T/C (dose: 25.0 mg/kg/injection, schedule: Q01DX010 (sc), vehicle: Klucel (hydroxypropylcellulose) (HPC)) is 34 % of control; the T/C (dose: 50.0 mg/kg/injection, schedule: Q01DX010 (sc), vehicle: Klucel (hydroxypropylcellulose) (HPC)) was 67 % of control; the T/C (dose: 100.0 mg/kg/injection, schedule: Q01DX010 (sc), vehicle: Klucel (hydroxypropylcellulose) (HPC)) is 43 % of control.
For the compound `Nc1nc2ccc(NCc3ccc(C(=O)NC(CCC(=O)O)C(=O)O)cc3)cc2c(=O)[nH]1` (stereo not given), the T/C is, setting by setting: under setting [1], 94 % of control; under setting [2], 83 % of control; (dose: 400.0 mg/kg/injection, schedule: Q04DX003 (sc), vehicle: saline with Tween-80) 109 % of control; under setting [3], 63 % of control.
With `CCCCn1cnc2c(=S)nc[nH]c21`, the T/C was 69 % of control (dose: 300.0 mg/kg/injection, schedule: Q04DX003 (sc), vehicle: suspension in saline); 53 % of control (dose: 600.0 mg/kg/injection, schedule: Q04DX003 (sc), vehicle: suspension in saline); 61 % of control (dose: 1200.0 mg/kg/injection, schedule: Q04DX003 (sc), vehicle: suspension in saline); 57 % of control (dose: 2400.0 mg/kg/injection, schedule: Q04DX003 (sc), vehicle: suspension in saline).
In the case of `COC1(OC)C2C=CC1CC2`, the T/C is 105 % of control under setting [4], 150 % of control under setting [5] and 104 % of control under setting [6].
